From US20240285545A1, “NANOSUSPENSION FORMULATION FOR TREATMENT OF PULMONARY FIBROSIS” (The Johns Hopkins University, priority 2023, published 2024)

Experiments:
[1] = system: silica-induced pulmonary fibrosis model; test: Therapeutic efficacy in silica-induced pulmonary fibrosis model (histology, lung mechanics); format: in vivo, C57BL/6 mice; settings: oral 100 mg/kg daily
Description: The Study design for assessing the therapeutic efficacy of NTB-NS in a preclinical silica-induced pulmonary fibrosis model is shown in FIG. 7. The silicosis model was established by a single intratracheal instillation of silica microparticles (800 mg/kg) into the lungs of C57BL/6 mice (Silicosis); in parallel, healthy control animals received saline in an identical manner (Control). Fifteen days after the silica instillation, animals were randomly assigned to different groups to receive oral daily doses of NTB-Esy at 100 mg/kg or intratracheal NTB-NS at a NTB dose of 0.1 or 1 mg/kg every 72 hours. Lungs were harvested for analysis at Day 34. IT: intratracheal; OR: oral. […]
For lung mechanics analysis at the end of treatments, mice were sedated with diazepam (1 mg/kg, intraperitoneal), anesthetized with thiopenthal sodium (20 mg/kg, intraperitoneal), tracheotomized, paralyzed with vecuronium bromide (0.005 mg/kg, intravenous), and ventilated with a constant flow ventilator (Samay VR 15, Montevideo, Uruguay) using the following parameters: frequency 100 breaths/min; tidal volume 0.2 mL; fraction of inspired oxygen 0.21. […] Data were analyzed using ANADAT data analysis software (RHT-InfoData Inc., Montreal Canada).
For histological analysis, left lung tissues were fixed with 4% paraformaldehyde and embedded in paraffin blocks. […] The granuloma fraction was calculated as follows: […]

silicotic animals = settings: daily oral 100 mg/kg; model with lower silica dose (2.5 mg/mouse); cited from earlier work
[2] = free-base form; cited from earlier work
[3] = oral administration of 100 mg/kg NTB, prior studies; cited from earlier work

CCS(=O)(=O)O.COC(=O)c1ccc2c(c1)NC(=O)/C2=C(\Nc1ccc(N(C)C(=O)CN2CCN(C)CC2)cc1)c1ccccc1 [NTB-Esy, NTB Esylate]
Area of collagen deposition in alveolar septa versus untreated silicotic animals [1]: unlike 100 mg/kg oral NTB-Esy, significantly reduced
Static lung elastance (Est,L) [1]: unlike oral NTB-Esy (100 mg/kg, daily), significantly decreased

COC(=O)c1ccc2c(c1)NC(=O)/C2=C(\Nc1ccc(N(C)C(=O)CN2CCN(C)CC2)cc1)c1ccccc1 [NTB, Nintedanib]
Fibrotic score in the lungs of silicotic animals (silicotic animals): significantly reduces
Aqueous solubility [2]: low aqueous solubility
Amount of drug available in mouse lungs [3]: approximately 2.5 μg
